How the values were obtained:
tubulin = molecular target: T1, tubulin (Sus scrofa, UniProt P02554); test: In vitro tubulin polymerization assay (HTS-tubulin polymerization kit, Cytoskeleton); format: biochemical; conditions: 3 μM compound, fluorescence, 70 minutes at 37° C.
T1 construct: purchased Cytoskeleton Inc. BK011P
Description: 1.5 ul of 10× strength compound, 20 μl of tubulin solution and Triton X-100 at a final concentration of 0.01% were added to each well in a 384 well plate. The reactions were assembled on ice to prevent tubulin pre-polymerization. For kinetic measurements, microtubule polymerization was monitored by reading the fluorescence at 420 nm (due to the incorporation of a fluorescent reporter into microtubules as polymerization occurs) every ten seconds using a Tecan M1000 microplate reader (FIG. 6B). […] Fluorescence increased as polymerization occurred, due to the incorporation of 4′,6-diamidino-2-phenylindole. Fluorescence was monitored every minute for 70 minutes at 37° C.
Tubulin polymerization reactions were carried out according to the manufacturer (Cytoskeleton, BK011P) in the presence of 3 μM colchicine, MI-181, taxol or DMSO. Polymerization was monitored with a Tecan M1000 micro-plate reader at 420 nm for 70 minutes at 37° C. The results are depicted in FIG. 11.

M397 = test: CellTiter-Glo cell viability, M397; format: cell-based
Description: (§1) To determine if MI-181 had broad anti-cancer activity, we treated a diverse panel of cancer cell lines including cervical adenocarcinoma (HeLa), breast adenocarcinoma (MCF7), melanoma (M233), osteosarcoma (U205), acute lymphoblastic leukemia (CCRF-CEM), non-small cell lung carcinoma (NCI-H460), and breast adenocarcinoma (MCF7) with MI-181 and determined its cell viability IC50 (FIGS. 13A and 13B). […] Therefore, the efficacy of MI-181 was analyzed in a panel of melanoma cell lines with defined genetic backgrounds including BRAF^V600E and NRAS^Q61L mutations and varied sensitivities to Vemurafenib (BRAF inhibitor) and Trametinib (MEK inhibitor), which are currently used to treat BRAF^V600E melanomas^43,44 (FIG. 10c). […] As a general trend BRAF^V600E cell lines were slightly more sensitive than NRAS^Q61L cell lines and MI-181 was effective in Vemurafenib and Trametinib resistant cell lines (FIG. 10c and Table 3). Finally, we tested the ability of MI-181 to inhibit melanoma colony formation using the M233 and M308 cell lines (both resistant to Vemurafenib). Indeed, MI-181 was a potent inhibitor of colony formation (percentage colony formation for 10 nM MI-181=0.2±0.1 and 0.8±0.7; for 10 nM colchicine=0.1±0.06 and 1.5±0.5; and for 10 nM Vemurafenib=94±7 and 102±5) (FIG. 10d). Thus, MI-181 is a potent inhibitor of melanoma cell lines. […]

melanoma (M233) = test: CellTiter-Glo cell viability, M233; format: cell-based
Description: as §1

M238 = test: CellTiter-Glo cell viability, M238; format: cell-based
Description: as §1

M296 = test: CellTiter-Glo cell viability, M296; format: cell-based
Description: as §1

M230 = test: CellTiter-Glo cell viability, M230; format: cell-based
Description: as §1

M202 = test: CellTiter-Glo cell viability, M202; format: cell-based
Description: as §1

[1] = system: panel of melanoma cell lines; test: Cell viability in a panel of melanoma cell lines; format: cell-based; conditions: melanoma cell lines incl. BRAF V600E and NRAS Q61L mutations; read-out: IC50 across melanoma panel
Description: as §1

M233 = test: Melanoma colony formation, M233; format: cell-based; conditions: 10 nM, M233 (first value of pair)
Description: (§2) To determine if MI-181 had broad anti-cancer activity, we treated a diverse panel of cancer cell lines including cervical adenocarcinoma (HeLa), breast adenocarcinoma (MCF7), melanoma (M233), osteosarcoma (U205), acute lymphoblastic leukemia (CCRF-CEM), non-small cell lung carcinoma (NCI-H460), and breast adenocarcinoma (MCF7) with MI-181 and determined its cell viability IC50 (FIGS. 13A and 13B). […] Therefore, the efficacy of MI-181 was analyzed in a panel of melanoma cell lines with defined genetic backgrounds including BRAF^V600E and NRAS^Q61L mutations and varied sensitivities to Vemurafenib (BRAF inhibitor) and Trametinib (MEK inhibitor), which are currently used to treat BRAF^V600E melanomas^43,44 (FIG. 10c). […] As a general trend BRAF^V600E cell lines were slightly more sensitive than NRAS^Q61L cell lines and MI-181 was effective in Vemurafenib and Trametinib resistant cell lines (FIG. 10c and Table 3). Finally, we tested the ability of MI-181 to inhibit melanoma colony formation using the M233 and M308 cell lines (both resistant to Vemurafenib). Indeed, MI-181 was a potent inhibitor of colony formation (percentage colony formation for 10 nM MI-181=0.2±0.1 and 0.8±0.7; for 10 nM colchicine=0.1±0.06 and 1.5±0.5; and for 10 nM Vemurafenib=94±7 and 102±5) (FIG. 10d). Thus, MI-181 is a potent inhibitor of melanoma cell lines.

M308 = test: Melanoma colony formation, M308; format: cell-based; conditions: 10 nM, M308 (second value of pair)
Description: as §2

cells = test: Immunoblot analysis of synchronized cells and drug washout (mitotic arrest reversibility); format: cell-based
Description: Phospho-histone-H3-488 (Ser10) (p-H3-488, Cell Signaling), α-tubulin (Serotec), AurKB (BD Transduction), Anti-Centromere-Antibodies (ACA, Cortex Biochem), cyclin A and B (Santa Cruz Biotechnology), and SECURIN (Gene Tex). BubR1 and Bub1 were from Hongtao Yu. FITC-, Cy3- and Cy5-conjugated secondary antibodies were from Jackson Immuno Research.
Cells were synchronized in G1/S, released into the cell cycle in the presence of DMSO or MI-181, and cell extracts were prepared at several time points post-release. […] Additionally, the MI-182-induced mitotic arrest was reversible, as cells exited mitosis within 2 hours of drug washout (FIG. 9).

T1 sequence (P02554 whole entry): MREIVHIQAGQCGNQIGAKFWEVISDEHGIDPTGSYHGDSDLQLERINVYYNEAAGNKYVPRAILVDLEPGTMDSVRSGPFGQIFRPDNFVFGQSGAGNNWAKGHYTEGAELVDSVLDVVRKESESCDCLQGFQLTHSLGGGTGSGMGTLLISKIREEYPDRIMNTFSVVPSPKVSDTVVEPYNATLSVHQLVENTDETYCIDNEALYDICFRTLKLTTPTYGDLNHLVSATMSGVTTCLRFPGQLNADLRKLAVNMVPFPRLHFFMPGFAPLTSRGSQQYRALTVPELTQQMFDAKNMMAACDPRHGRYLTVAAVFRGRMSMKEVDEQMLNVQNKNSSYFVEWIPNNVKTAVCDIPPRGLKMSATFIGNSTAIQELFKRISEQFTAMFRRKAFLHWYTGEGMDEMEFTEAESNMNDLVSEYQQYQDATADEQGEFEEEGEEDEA
T1 sequence (P02550 whole entry partner): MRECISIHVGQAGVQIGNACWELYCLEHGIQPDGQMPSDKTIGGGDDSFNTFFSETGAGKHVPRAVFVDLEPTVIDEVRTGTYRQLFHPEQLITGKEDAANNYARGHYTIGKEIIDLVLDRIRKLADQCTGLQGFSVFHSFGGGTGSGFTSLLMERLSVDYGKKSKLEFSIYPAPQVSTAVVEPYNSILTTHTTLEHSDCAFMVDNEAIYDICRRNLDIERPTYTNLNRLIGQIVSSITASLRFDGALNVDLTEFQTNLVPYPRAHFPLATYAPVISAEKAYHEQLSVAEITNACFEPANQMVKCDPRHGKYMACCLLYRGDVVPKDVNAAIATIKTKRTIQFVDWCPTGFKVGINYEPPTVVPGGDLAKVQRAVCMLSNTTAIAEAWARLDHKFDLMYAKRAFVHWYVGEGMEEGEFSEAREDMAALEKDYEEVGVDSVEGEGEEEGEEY

inhibition of microtubule (tubulin) polymerization in vitro (tubulin): inhibits tubulin polymerization | IC50 (melanoma (M233)): 24.4 nM | IC50 [1]: 18 to 90 nM
Compound: Cc1cc2nc(/C=C/c3cccnc3)sc2cc1C [MI-181]
IC50 (M397): 18.1 nM | IC50 (M238): 30.5 nM | IC50 (M296): 36.7 nM | IC50 (M230): 42 nM | IC50 (M202): 88.3 nM | percentage colony formation (M233): 0.2±0.1 | percentage colony formation (M308): 0.8±0.7 | reversibility of induced mitotic arrest (cells; FIG. 9): reversible | cell cycle state by immunoblot (cells; cells synchronized in G1/S, released in presence of drug): arrested in mitosis (p-H3 positive), activated the SAC (BubR1 remained phosphorylated) and stabilized cyclin B while degrading cyclin A | time to exit mitosis after drug washout (cells; drug washout): ≤ 2 h
